#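 Method: 48-hour compound exposure of cells in 96-well plates, five concentrations, linear interpolation of endpoints. The concentration for 50% growth inhibition is given as GI50. TGI: total growth inhibition.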
# Legend:
# Experiment in all cases: NCI-60 cell line screen, 48 h
# 786-0 renal = system: 786-0 renal
# A498 renal = system: A498 renal
# A549 NSCLC = system: A549 NSCLC
# ACHN renal = system: ACHN renal
# BT-549 breast = system: BT-549 breast
# CAKI-1 renal = system: CAKI-1 renal
# CCRF-CEM leukemia = system: CCRF-CEM leukemia
# COLO 205 colon = system: COLO 205 colon
# DU-145 prostate = system: DU-145 prostate
# EKVX NSCLC = system: EKVX NSCLC
# HCC-2998 colon = system: HCC-2998 colon
# HCT-116 colon = system: HCT-116 colon
# HCT-15 colon = system: HCT-15 colon
# HL-60(TB) leukemia = system: HL-60(TB) leukemia
# HOP-62 NSCLC = system: HOP-62 NSCLC
# HOP-92 NSCLC = system: HOP-92 NSCLC
# HS 578T breast = system: HS 578T breast
# HT29 colon = system: HT29 colon
# IGROV1 ovarian = system: IGROV1 ovarian
# K-562 leukemia = system: K-562 leukemia
# KM12 colon = system: KM12 colon
# LOX IMVI melanoma = system: LOX IMVI melanoma
# M14 melanoma = system: M14 melanoma
# MALME-3M melanoma = system: MALME-3M melanoma
# MCF7 breast = system: MCF7 breast
# MDA-MB-231 breast = system: MDA-MB-231 breast
# MDA-MB-435 = system: MDA-MB-435
# NCI-H226 lung = system: NCI-H226 lung
# NCI-H23 lung = system: NCI-H23 lung
# NCI-H460 lung = system: NCI-H460 lung
# NCI-H522 lung = system: NCI-H522 lung
# NCI/ADR-RES ovarian = system: NCI/ADR-RES ovarian
# OVCAR-3 ovarian = system: OVCAR-3 ovarian
# OVCAR-4 ovarian = system: OVCAR-4 ovarian
# OVCAR-5 ovarian = system: OVCAR-5 ovarian
# OVCAR-8 ovarian = system: OVCAR-8 ovarian
# PC-3 prostate = system: PC-3 prostate
# RPMI-8226 leukemia = system: RPMI-8226 leukemia
# RXF 393 renal = system: RXF 393 renal
# SF-268 CNS = system: SF-268 CNS
# SF-295 CNS = system: SF-295 CNS
# SF-539 CNS = system: SF-539 CNS
# SK-MEL-2 melanoma = system: SK-MEL-2 melanoma
# SK-MEL-28 melanoma = system: SK-MEL-28 melanoma
# SK-MEL-5 melanoma = system: SK-MEL-5 melanoma
# SK-OV-3 ovarian = system: SK-OV-3 ovarian
# SN12C renal = system: SN12C renal
# SNB-19 CNS = system: SNB-19 CNS
# SNB-75 CNS = system: SNB-75 CNS
# SR leukemia = system: SR leukemia
# SW-620 colon = system: SW-620 colon
# T-47D breast = system: T-47D breast
# TK-10 renal = system: TK-10 renal
# U251 CNS = system: U251 CNS
# UACC-257 melanoma = system: UACC-257 melanoma
# UACC-62 melanoma = system: UACC-62 melanoma
# UO-31 renal = system: UO-31 renal
smiles,measurement,setting,value
O=C1OCC(C#Cc2ccccc2)=C1Br,GI50,786-0 renal,2.58 µM
same,TGI,786-0 renal,12.5 µM
same,GI50,A498 renal,19.3 µM
same,TGI,A498 renal,54.5 µM
same,GI50,A549 NSCLC,16.7 µM
same,TGI,A549 NSCLC,34.6 µM
same,GI50,ACHN renal,9.34 µM
same,TGI,ACHN renal,> 43.9 µM
same,GI50,BT-549 breast,6.03 µM
same,TGI,BT-549 breast,27.4 µM
same,GI50,CAKI-1 renal,5.61 µM
same,TGI,CAKI-1 renal,13.4 µM
same,GI50,CCRF-CEM leukemia,1.1 µM
same,TGI,CCRF-CEM leukemia,5.58 µM
same,GI50,COLO 205 colon,5.35 µM
same,TGI,COLO 205 colon,> 54.7 µM
same,GI50,DU-145 prostate,3.42 µM
same,TGI,DU-145 prostate,13.2 µM
same,GI50,EKVX NSCLC,17.2 µM
same,TGI,EKVX NSCLC,35.5 µM
same,GI50,HCC-2998 colon,19.3 µM
same,TGI,HCC-2998 colon,37.3 µM
same,GI50,HCT-116 colon,0.541 µM
same,TGI,HCT-116 colon,> 31.6 µM
same,GI50,HCT-15 colon,3.96 µM
same,TGI,HCT-15 colon,> 38.4 µM
same,GI50,HL-60(TB) leukemia,0.0201 µM
same,TGI,HL-60(TB) leukemia,0.384 µM
same,GI50,HOP-62 NSCLC,13.2 µM
same,TGI,HOP-62 NSCLC,38.2 µM
same,GI50,HOP-92 NSCLC,3.93 µM
same,TGI,HOP-92 NSCLC,13.4 µM
same,GI50,HS 578T breast,6.2 µM
same,TGI,HS 578T breast,19 µM
same,GI50,HT29 colon,7.67 µM
same,TGI,HT29 colon,97.4 µM
same,GI50,IGROV1 ovarian,4.77 µM
same,TGI,IGROV1 ovarian,33.5 µM
same,GI50,K-562 leukemia,2.63 µM
same,TGI,K-562 leukemia,11.6 µM
same,GI50,KM12 colon,3.64 µM
same,TGI,KM12 colon,15 µM
same,GI50,LOX IMVI melanoma,3.15 µM
same,TGI,LOX IMVI melanoma,> 35.9 µM
same,GI50,M14 melanoma,2.83 µM
same,TGI,M14 melanoma,16 µM
same,GI50,MALME-3M melanoma,2.18 µM
same,TGI,MALME-3M melanoma,9.33 µM
same,GI50,MCF7 breast,2.69 µM
same,TGI,MCF7 breast,12.8 µM
same,GI50,MDA-MB-231 breast,3.12 µM
same,TGI,MDA-MB-231 breast,14.8 µM
same,GI50,MDA-MB-435,10.8 µM
same,TGI,MDA-MB-435,48.3 µM
same,GI50,NCI-H226 lung,23.1 µM
same,TGI,NCI-H226 lung,72 µM
same,GI50,NCI-H23 lung,2.94 µM
same,TGI,NCI-H23 lung,9.5 µM
same,GI50,NCI-H460 lung,19.5 µM
same,TGI,NCI-H460 lung,48.5 µM
same,GI50,NCI-H522 lung,17.4 µM
same,TGI,NCI-H522 lung,49.7 µM
same,GI50,NCI/ADR-RES ovarian,6.25 µM
same,TGI,NCI/ADR-RES ovarian,> 63.2 µM
same,GI50,OVCAR-3 ovarian,1.77 µM
same,TGI,OVCAR-3 ovarian,8.9 µM
same,GI50,OVCAR-4 ovarian,7.13 µM
same,TGI,OVCAR-4 ovarian,27.7 µM
same,GI50,OVCAR-5 ovarian,> 100 µM
same,TGI,OVCAR-5 ovarian,> 100 µM
same,GI50,OVCAR-8 ovarian,2.27 µM
same,TGI,OVCAR-8 ovarian,7.26 µM
same,GI50,PC-3 prostate,2.56 µM
same,TGI,PC-3 prostate,12.7 µM
same,GI50,RPMI-8226 leukemia,0.648 µM
same,TGI,RPMI-8226 leukemia,3.09 µM
same,GI50,RXF 393 renal,3.96 µM
same,TGI,RXF 393 renal,31.8 µM
same,GI50,SF-268 CNS,4.76 µM
same,TGI,SF-268 CNS,20.6 µM
same,GI50,SF-295 CNS,17.7 µM
same,TGI,SF-295 CNS,48.8 µM
same,GI50,SF-539 CNS,2.42 µM
same,TGI,SF-539 CNS,9.81 µM
same,GI50,SK-MEL-2 melanoma,18.8 µM
same,TGI,SK-MEL-2 melanoma,52.4 µM
same,GI50,SK-MEL-28 melanoma,4.75 µM
same,TGI,SK-MEL-28 melanoma,> 100 µM
same,GI50,SK-MEL-5 melanoma,1.82 µM
same,TGI,SK-MEL-5 melanoma,6.15 µM
same,GI50,SK-OV-3 ovarian,52.9 µM
same,TGI,SK-OV-3 ovarian,> 100 µM
same,GI50,SN12C renal,3.14 µM
same,TGI,SN12C renal,14.1 µM
same,GI50,SNB-19 CNS,21.5 µM
same,TGI,SNB-19 CNS,> 68.8 µM
same,GI50,SNB-75 CNS,18.1 µM
same,TGI,SNB-75 CNS,> 100 µM
same,GI50,SR leukemia,0.186 µM
same,TGI,SR leukemia,> 100 µM
same,GI50,SW-620 colon,1.72 µM
same,TGI,SW-620 colon,5.75 µM
same,GI50,T-47D breast,16.3 µM
same,TGI,T-47D breast,> 67.5 µM
same,GI50,TK-10 renal,0.929 µM
same,TGI,TK-10 renal,17.1 µM
same,GI50,U251 CNS,4.88 µM
same,TGI,U251 CNS,> 39.3 µM
same,GI50,UACC-257 melanoma,8.26 µM
same,TGI,UACC-257 melanoma,28.2 µM
same,GI50,UACC-62 melanoma,10.7 µM
same,TGI,UACC-62 melanoma,26.1 µM
same,GI50,UO-31 renal,7.66 µM
same,TGI,UO-31 renal,22.7 µM

# — PubChem BioAssay (NCI)
